Drawing on patent US10246462B2, “Chemokine receptor modulators and uses thereof” (FLX Bio, Inc., priority 2016, dated 2019), this text covers IC50 for 25 compounds.

In the experiment the target is CCR4 (Homo sapiens (Human), UniProt P51679). The experiment in a line: Calcium mobilization (Ca Flux) assay. In kind it is cell-based. The method, then:
Calcium Mobilization Assay. Calcium mobilization experiments may be performed by labeling the human T-cell line CEM with […] dye (45 min at room temperature), washing with PBS, and re-suspending into flux buffer (HBSS with 1% FBS).

Molecules are shown by their SMILES. Counter-ions that a name gives are not always drawn.

Chain of CCR4 (P51679 whole entry): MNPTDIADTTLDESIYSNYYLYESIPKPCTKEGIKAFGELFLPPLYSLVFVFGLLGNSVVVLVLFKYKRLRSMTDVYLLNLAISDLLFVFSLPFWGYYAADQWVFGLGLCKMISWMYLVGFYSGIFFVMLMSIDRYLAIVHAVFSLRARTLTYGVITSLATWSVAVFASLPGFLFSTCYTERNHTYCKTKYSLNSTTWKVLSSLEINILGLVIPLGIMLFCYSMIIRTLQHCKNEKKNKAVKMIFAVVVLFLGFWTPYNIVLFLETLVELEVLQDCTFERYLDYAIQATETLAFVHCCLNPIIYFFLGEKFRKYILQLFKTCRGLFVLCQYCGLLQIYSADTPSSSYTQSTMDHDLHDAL

As for `Cc1nn([C@H](C)c2ccc(Cl)cc2Cl)c2nc(N3CC[C@H](N4CCC[C@H]4C)[C@H](C)C3)cnc12` [Example 20, 1-((R)-1-(2,4-Dichlorophenyl)ethyl)-3-methyl-6-((3R,4S)-3-methyl-4-((R)-2-methylpyrrolidin-1-yl)piperidin-1-yl)-1H-pyrazolo[3,4-b]pyrazine hydrochloride], the IC50 is less than 100 nM.
As for `Cc1nn([C@H](C)c2ccc(Cl)cc2Cl)c2nc(N3CCC(N4CCC[C@@H]4C)C(C)C3)cnc12` (stereo partly drawn) [Example 21, 1-((R)-1-(2,4-Dichlorophenyl)ethyl)-3-methyl-6-(3-methyl-4-((S)-2-methylpyrrolidin-1-yl)piperidin-1-yl)-1H-pyrazolo[3,4-b]pyrazine hydrochloride], the IC50 is more than 500 nM.
As for `Cc1nn([C@H](C)c2ccc(Cl)cc2Cl)c2nc(N3CC[C@H](N4CCC[C@@H]4C)[C@H](C)C3)cnc12` [Example 22, 1-((R)-1-(2,4-Dichlorophenyl)ethyl)-3-methyl-6-((3R,4S)-3-methyl-4-((S)-2-methylpyrrolidin-1-yl)piperidin-1-yl)-1H-pyrazolo[3,4-b]pyrazine hydrochloride], the IC50 was 100 to 500 nM.
Take `C[C@@H]1CN(c2cnc3c(C#N)nn([C@H](C)c4ccc(Cl)cc4Cl)c3n2)CC[C@@H]1N1CCCCC1` [Example 23, 1-((R)-1-(2,4-Dichlorophenyl)ethyl)-6-((3′R,4′S)-3′-methyl-[1,4′-bipiperidin]-1′-yl)-1H-pyrazolo[3,4-b]pyrazine-3-carbonitrile hydrochloride]: the IC50 was less than 100 nM.
With `C[C@H](c1ccc(Cl)cc1Cl)n1nc(C#N)c2ncc(N3CC[C@@H](N4CCCCC4)[C@@H](C)C3)nc21` [Example 24, 1-((R)-1-(2,4-Dichlorophenyl)ethyl)-6-((3′S,4′R)-3′-methyl-[1,4′-bipiperidin]-1′-yl)-1H-pyrazolo[3,4-b]pyrazine-3-carbonitrile hydrochloride], the IC50 was more than 500 nM.
On to `CC(c1ccc(Cl)cc1Cl)n1nc(C(N)=O)c2ncc(N3CCC(N4CCCCC4)C(F)C3)nc21` (stereo not shown) [Example 25, 1-(1-(2,4-Dichlorophenyl)ethyl)-6-(3′-fluoro-[1,4′-bipiperidin]-1′-yl)-1H-pyrazolo[3,4-b]pyrazine-3-carboxamide hydrochloride], for which the IC50 lay within 100 to 500 nM.
Regarding `CC(c1ccc(Cl)cc1Cl)n1nc(C#N)c2ncc(N3CCC(N4CCCCC4)C(F)C3)nc21` (stereo not shown) [Example 26, 1-(1-(2,4-Dichlorophenyl)ethyl)-6-(3′-fluoro-[1,4′-bipiperidin]-1′-yl)-1H-pyrazolo[3,4-b]pyrazine-3-carbonitrile 2,2,2-trifluoroacetate], the IC50 is more than 500 nM.
On to `CC(c1ccc(Cl)cc1Cl)n1nc(C(N)=O)c2ncc(N3CCC(N4CCCCC4)C(CO)C3)nc21` (stereo not shown) [Example 27, 1-(1-(2,4-Dichlorophenyl)ethyl)-6-(3′-(hydroxymethyl)-[1,4′-bipiperidin]-1′-yl)-1H-pyrazolo[3,4-b]pyrazine-3-carboxamide hydrochloride], for which the half-inhibitory concentration (IC50) was in the range of 100 to 500 nM.
Turning to `C[C@H](c1ccc(Cl)cc1Cl)n1nc(C#N)c2ncc(N3CC[C@@H](N4CCCCC4)[C@@H](CO)C3)nc21` [Example 28, 1-((R)-1-(2,4-Dichlorophenyl)ethyl)-6-((3′S,4′R)-3′-(hydroxymethyl)-[1,4′-bipiperidin]-1′-yl)-1H-pyrazolo[3,4-b]pyrazine-3-carbonitrile hydrochloride], the half-maximal inhibitory concentration (IC50) lay in the range of 100 to 500 nM.
With `C[C@H](c1ccc(Cl)cc1Cl)n1nc(C#N)c2ncc(N3CC[C@H](N4CCCCC4)[C@H](CO)C3)nc21` [Example 29, 1-((R)-1-(2,4-Dichlorophenyl)ethyl)-6-((3′R,4′S)-3′-(hydroxymethyl)-[1,4′-bipiperidin]-1′-yl)-1H-pyrazolo[3,4-b]pyrazine-3-carbonitrile hydrochloride], the IC50 was less than 100 nM.
With `Cc1nn([C@H](C)c2ccc(Cl)cc2Cl)c2nc(N3CC[C@H](N4CCC[C@H]4C)[C@H](C(=O)O)C3)cnc12` [Example 30, (3R,4S)-1-(1-((R)-1-(2,4-Dichlorophenyl)ethyl)-3-methyl-1H-pyrazolo[3,4-b]pyrazin-6-yl)-4-((R)-2-methylpyrrolidin-1-yl)piperidine-3-carboxylic acid hydrochloride], the IC50 lay in the range of 100 to 500 nM.
For `C[C@@H]1CN(c2cnc3c(C#N)nn([C@H](C)c4ccc(Cl)cc4Cl)c3n2)CC[C@@H]1N1CCC[C@H]1CO` [Example 33, 1-((R)-1-(2,4-Dichlorophenyl)ethyl)-6-((3R,4S)-4-((S)-2-(hydroxymethyl)pyrrolidin-1-yl)-3-methylpiperidin-1-yl)-1H-pyrazolo[3,4-b]pyrazine-3-carbonitrile hydrochloride], the concentration for half-maximal inhibition (IC50) is less than 100 nM.
Regarding `Cc1nn([C@H](C)c2ccc(Cl)cc2Cl)c2nc(N3CC[C@H](N4CCC[C@H]4C(=O)O)[C@H](C)C3)cnc12` [Example 34, ((3R,4S)-1-(1-((R)-1-(2,4-Dichlorophenyl)ethyl)-3-methyl-1H-pyrazolo[3,4-b]pyrazin-6-yl)-3-methylpiperidin-4-yl)-L-proline 2,2,2-trifluoroacetate], the half-maximal inhibitory concentration (IC50) is more than 500 nM.
To `C[C@@H]1CN(c2cnc3c(C#N)nn([C@H](C)c4ccc(Cl)cc4Cl)c3n2)CC[C@@H]1N1CCC[C@H]1C(=O)O` [Example 35, ((3R,4S)-1-(3-Cyano-1-((R)-1-(2,4-dichlorophenyl)ethyl)-1H-pyrazolo[3,4-b]pyrazin-6-yl)-3-methylpiperidin-4-yl)-L-proline 2,2,2-trifluoroacetate] belongs 100 to 500 nM; to `Cc1nn([C@H](C)c2ccc(Cl)cc2Cl)c2nc(N3CC[C@H](N4CCC[C@H]4C(C)(C)O)[C@H](C)C3)cnc12` [Example 36, 2-((S)-1-((3R,4S)-1-(1-((R)-1-(2,4-Dichlorophenyl)ethyl)-3-methyl-1H-pyrazolo[3,4-b]pyrazin-6-yl)-3-methylpiperidin-4-yl)pyrrolidin-2-yl)propan-2-ol hydrochloride], 100 to 500 nM.
As to `Cc1nn([C@H](C)c2ccc(Cl)cc2Cl)c2nc(N3CC[C@H](N4C[C@H](O)C[C@H]4C(=O)O)[C@H](C)C3)cnc12` [Example 37, (2S,4R)-1-((3R,4S)-1-(1-((R)-1-(2,4-Dichlorophenyl)ethyl)-3-methyl-1H-pyrazolo[3,4-b]pyrazin-6-yl)-3-methylpiperidin-4-yl)-4-hydroxypyrrolidine-2-carboxylic acid 2,2,2-trifluoroacetate], the IC50 is more than 500 nM.
Consider `Cc1nn([C@H](C)c2ccc(Cl)cc2Cl)c2nc(N3CC[C@H](N4CCC[C@@H](CC(=O)O)C4)[C@H](C)C3)cnc12` [Example 38, 2-((3S,3′R,4′S)-1′-(1-((R)-1-(2,4-Dichlorophenyl)ethyl)-3-methyl-1H-pyrazolo[3,4-b]pyrazin-6-yl)-3′-methyl-[1,4′-bipiperidin]-3-yl)acetic acid formate], for which the IC50 is 100 to 500 nM.
To `C[C@@H]1CN(c2cnc3c(C#N)nn([C@H](C)c4ccc(Cl)cc4Cl)c3n2)CC[C@@H]1N1CCC[C@@H](CC(=O)O)C1` [Example 39, 2-((3S,3′R,4′S)-1′-(3-Cyano-1-((R)-1-(2,4-dichlorophenyl)ethyl)-1H-pyrazolo[3,4-b]pyrazin-6-yl)-3′-methyl-[1,4′-bipiperidin]-3-yl)acetic acid formate] belongs 100 to 500 nM; to `Cc1nn([C@H](C)c2ccc(Cl)cc2Cl)c2nc(N3CC[C@@H](N4CCC[C@@H](CCC(=O)O)C4)[C@@H](C)C3)cnc12` [Example 40, 3-((3S,3′S,4′R)-1′-(1-((R)-1-(2,4-Dichlorophenyl)ethyl)-3-methyl-1H-pyrazolo[3,4-b]pyrazin-6-yl)-3′-methyl-[1,4′-bipiperidin]-3-yl)propanoic acid 2,2,2-trifluoroacetate], more than 500 nM; to `Cc1nn([C@H](C)c2ccc(Cl)cc2Cl)c2nc(N3CC[C@H](N4CCC[C@H]4CCC(=O)O)[C@H](C)C3)cnc12` [Example 42, 3-((S)-1-((3R,4S)-1-(1-((R)-1-(2,4-dichlorophenyl)ethyl)-3-methyl-1H-pyrazolo[3,4-b]pyrazin-6-yl)-3-methylpiperidin-4-yl)pyrrolidin-2-yl)propanoic acid hydrochloride], 100 to 500 nM.
To `C[C@@H]1CN(c2cnc3c(C#N)nn([C@H](C)c4ccc(Cl)cc4Cl)c3n2)CC[C@@H]1N1CCC[C@H]1CCC(=O)O` [Example 43, 3-((S)-1-((3R,4S)-1-(3-Cyano-1-((R)-1-(2,4-dichlorophenyl)ethyl)-1H-pyrazolo[3,4-b]pyrazin-6-yl)-3-methylpiperidin-4-yl)pyrrolidin-2-yl)propanoic acid hydrochloride] belongs less than 100 nM; to `Cc1nn([C@H](C)c2ccc(Cl)cc2Cl)c2nc(N3CC[C@H](N4CCC[C@H]4CCC(N)=O)[C@H](C)C3)cnc12` [Example 44, 3-((S)-1-((3R,4S)-1-(1-((R)-1-(2,4-Dichlorophenyl)ethyl)-3-methyl-1H-pyrazolo[3,4-b]pyrazin-6-yl)-3-methylpiperidin-4-yl)pyrrolidin-2-yl)propanamide hydrochloride], less than 100 nM.
Regarding `Cc1nn([C@H](C)c2ccc(Cl)cc2Cl)c2nc(N3CCC(N4CCC[C@H]4CCN)[C@H](C)C3)cnc12` (stereo partly drawn) [Example 45, 3-((R)-1-((3R,4S)-1-(1-((R)-1-(2,4-Dichlorophenyl)ethyl)-3-methyl-1H-pyrazolo[3,4-b]pyrazin-6-yl)-3-methylpiperidin-4-yl)pyrrolidin-2-yl)ethan-1-amine], the IC50 is 100 to 500 nM.
Regarding `C[C@@H]1CN(c2cnc3c(C#N)nn([C@H](C)c4ccc(Cl)cc4Cl)c3n2)CC[C@@H]1N1CCC[C@H]1CCC(N)=O` [Example 48, 3-((S)-1-((3R,4S)-1-(3-Cyano-1-((R)-1-(2,4-dichlorophenyl)ethyl)-1H-pyrazolo[3,4-b]pyrazin-6-yl)-3-methylpiperidin-4-yl)pyrrolidin-2-yl)propanamide 2,2,2-trifluoroacetate], the IC50 is less than 100 nM.
Take `Cc1nn([C@H](C)c2ccc(Cl)cc2F)c2nc(N3CC[C@H](N4CCC[C@H]4CCC(=O)O)[C@H](C)C3)cnc12` [Example 49, 3-((S)-1-((3R,4S)-1-(1-((R)-1-(4-Chloro-2-fluorophenyl)ethyl)-3-methyl-1H-pyrazolo[3,4-b]pyrazin-6-yl)-3-methylpiperidin-4-yl)pyrrolidin-2-yl)propanoic acid 2,2,2-trifluoroacetate]: the IC50 was in the range of 100 to 500 nM.
